Measured values reported in patent publication US20150105252A1, “SUBSTITUTED PYRAZOLES AS HERBICIDES” (E I DU PONT DE NEMOURS AND COMPANY, priority 2013, published 2015).

Assays:
barnyardgrass [1] = assay: Test A preemergence; format: in vivo, Echinochloa crus-galli; conditions: preemergence
How it was run: (§1)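 Scoring was visual, on a scale where 100 means complete control and 0 means no effect, comparing treated with untreated plants around 10 days post-application. Compounds in surfactant-containing non-phytotoxic solvent were sprayed onto soil preemergence or onto one- to two-leaf seedlings (2–10 cm) postemergence.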

crabgrass, large [2] = assay: Test A preemergence; format: in vivo, Digitaria sanguinalis; conditions: preemergence
How it was run: as §1

foxtail, giant [3] = assay: Test A preemergence; format: in vivo, Setaria faberii; conditions: preemergence
How it was run: as §1

morningglory [4] = assay: Test A preemergence; format: in vivo, Ipomoea spp.; conditions: preemergence
How it was run: as §1

pigweed [5] = assay: Test A preemergence; format: in vivo, Amaranthus retroflexus; conditions: preemergence
How it was run: as §1

velvetleaf [6] = assay: Test A preemergence; format: in vivo, Abutilon theophrasti; conditions: preemergence
How it was run: as §1

wheat [7] = assay: Test A preemergence; format: in vivo, Triticum aestivum; conditions: preemergence
How it was run: as §1

corn [8] = assay: Test A preemergence; format: in vivo, Zea mays; conditions: preemergence
How it was run: as §1

barnyardgrass [9] = assay: Test A postemergence; format: in vivo, Echinochloa crus-galli
How it was run: as §1

crabgrass, large [10] = assay: Test A postemergence; format: in vivo, Digitaria sanguinalis
How it was run: as §1

foxtail, giant [11] = assay: Test A postemergence; format: in vivo, Setaria faberii
How it was run: as §1

morningglory [12] = assay: Test A postemergence; format: in vivo, Ipomoea spp.
How it was run: as §1

pigweed [13] = assay: Test A postemergence; format: in vivo, Amaranthus retroflexus
How it was run: as §1

velvetleaf [14] = assay: Test A postemergence; format: in vivo, Abutilon theophrasti
How it was run: as §1

wheat [15] = assay: Test A postemergence; format: in vivo, Triticum aestivum
How it was run: as §1

corn [16] = assay: Test A postemergence; format: in vivo, Zea mays
How it was run: as §1

rice [17] = assay: Test B flood; format: in vivo, Oryza sativa; conditions: 250 g ai/ha, visual rating on 0 to 100 scale (0 no effect, 100 complete control), 13 to 15 days
How it was run: (§2)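 Response scored visually, 0–100 relative to controls, 13–15 days after the compound was applied into paddy water; plants were at the 2-leaf stage in pots kept flooded to 3 cm.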

sedge, umbrella [18] = assay: Test B flood; format: in vivo, Cyperus difformis; conditions: 250 g ai/ha, visual rating on 0 to 100 scale (0 no effect, 100 complete control), 13 to 15 days
How it was run: as §2

ducksalad [19] = assay: Test B flood; format: in vivo, Heteranthera limosa; conditions: 250 g ai/ha, visual rating on 0 to 100 scale (0 no effect, 100 complete control), 13 to 15 days
How it was run: as §2

barnyardgrass [20] = assay: Test B flood; format: in vivo, Echinochloa crus-galli; conditions: 250 g ai/ha, visual rating on 0 to 100 scale (0 no effect, 100 complete control), 13 to 15 days
How it was run: as §2

rice [21] = assay: Test C flooded paddy test; format: in vivo, Oryza sativa; conditions: Flood
How it was run: (§3)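 Compound was added to standing water 3 cm above soil, flood maintained, and plants held in a greenhouse before visual scoring against controls at 13 to 15 days.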

sedge, umbrella [22] = assay: Test C flooded paddy test; format: in vivo, Cyperus difformis; conditions: Flood
How it was run: as §3

ducksalad [23] = assay: Test C flooded paddy test; format: in vivo, Heteranthera limosa; conditions: Flood
How it was run: as §3

barnyardgrass [24] = assay: Test C flooded paddy test; format: in vivo, Echinochloa crus-galli; conditions: Flood
How it was run: as §3

[25] = 125 g ai/ha, visual injury, 0 to 100 scale, approx. 10 days
[26] = 500 g ai/ha, visual injury after approx. 10 days, 0 to 100 scale (0 no effect, 100 complete control)
[27] = Postemergence, 500 g ai/ha, 0 to 100 scale (0 no effect, 100 complete control)
[28] = postemergence, 125 g ai/ha, about 10 days, visual rating on 0 to 100 scale (0 no effect, 100 complete control)
[29] = 31 g ai/ha, scale 0 to 100 (0 no effect, 100 complete control)
[30] = 62 g ai/ha, scale 0 to 100 (0 no effect, 100 complete control)
[31] = 125 g ai/ha, visual injury approx. 10 days after treatment

In the case of `CCCCNC(=O)c1cc(CC)n(Cc2ccnc(C(F)(F)F)c2)n1` [Compound 141], the “Barnyardgrass plant response rating” value (barnyardgrass [1]; [25]) is reported as 70, the “Barnyardgrass plant response rating” value (barnyardgrass [1]; [26]) is reported as 100 and the “Crabgrass, Large plant response rating” value (crabgrass, large [2]; [25]) is reported as 100. For the same compound, the “Crabgrass, Large plant response rating” value (crabgrass, large [2]; [26]) was 100, the “Foxtail, Giant plant response rating” value (foxtail, giant [3]; [25]) was 90 and the “Foxtail, Giant plant response rating” value (foxtail, giant [3]; [26]) was 100. For the same compound, the “Morningglory plant response rating” value (morningglory [4]; [25]) was 50, the “Morningglory plant response rating” value (morningglory [4]; [26]) was 100 and the “Pigweed plant response rating” value (pigweed [5]; [25]) was 100. The “Pigweed plant response rating” value (pigweed [5]; [26]) was 100, the “Velvetleaf plant response rating” value (velvetleaf [6]; [25]) was 10 and the “Velvetleaf plant response rating” value (velvetleaf [6]; [26]) was 50. For the same compound, the “Wheat plant response rating” value (wheat [7]; [25]) was 30, the “Wheat plant response rating” value (wheat [7]; [26]) was 90 and the “Corn plant response rating” value (corn [8]; [25]) was 40. The “Corn plant response rating” value (corn [8]; [26]) was 80, the “Barnyardgrass plant response rating” value (barnyardgrass [9]; [27]) was 80 and the “Barnyardgrass plant response rating” value (barnyardgrass [9]; [28]) was 40. For the same compound, the “Crabgrass, Large plant response rating” value (crabgrass, large [10]; [27]) was 90, the “Crabgrass, Large plant response rating” value (crabgrass, large [10]; [28]) was 70 and the “Foxtail, Giant plant response rating” value (foxtail, giant [11]; [27]) was 90. For the same compound, the “Foxtail, Giant plant response rating” value (foxtail, giant [11]; [28]) was 80, the “Morningglory plant response rating” value (morningglory [12]; [27]) was 100 and the “Morningglory plant response rating” value (morningglory [12]; [28]) was 90. For the same compound, the “Pigweed plant response rating” value (pigweed [13]; [27]) was 100, the “Pigweed plant response rating” value (pigweed [13]; [28]) was 60 and the “Velvetleaf plant response rating” value (velvetleaf [14]; [27]) was 100. For the same compound, the “Velvetleaf plant response rating” value (velvetleaf [14]; [28]) was 30, the “Wheat plant response rating” value (wheat [15]; [27]) was 80 and the “Wheat plant response rating” value (wheat [15]; [28]) was 30. The “Corn plant response rating” value (corn [16]; [27]) was 90, the “Corn plant response rating” value (corn [16]; [28]) was 50 and the “Plant response rating, Rice” value (rice [17]) was 20. The “Plant response rating, Sedge, Umbrella” value (sedge, umbrella [18]) was 95, the “Plant response rating, Ducksalad” value (ducksalad [19]) was 100 and the “Plant response rating, Barnyardgrass” value (barnyardgrass [20]) was 45. The “Plant response rating, Rice” value (rice [21]; [29]) was 0, the “Plant response rating, Rice” value (rice [21]; [30]) was 0 and the “Plant response rating, Rice” value (rice [21]; 125 g ai/ha, scale 0 to 100) was 20. For the same compound, the “Plant response rating, Rice” value (rice [21]; 250 g ai/ha, scale 0 to 100) was 20, the “Plant response rating, Sedge, Umbrella” value (sedge, umbrella [22]; [29]) was 30 and the “Plant response rating, Sedge, Umbrella” value (sedge, umbrella [22]; [30]) was 70. For the same compound, the “Plant response rating, Sedge, Umbrella” value (sedge, umbrella [22]; 125 g ai/ha, scale 0 to 100) was 95, the “Plant response rating, Sedge, Umbrella” value (sedge, umbrella [22]; 250 g ai/ha, scale 0 to 100) was 100 and the “Plant response rating, Ducksalad” value (ducksalad [23]; [29]) was 40. For the same compound, the “Plant response rating, Ducksalad” value (ducksalad [23]; [30]) was 80, the “Plant response rating, Ducksalad” value (ducksalad [23]; 125 g ai/ha, scale 0 to 100) was 95 and the “Plant response rating, Ducksalad” value (ducksalad [23]; 250 g ai/ha, scale 0 to 100) was 100. The “Plant response rating, Barnyardgrass” value (barnyardgrass [24]; [29]) was 0, the “Plant response rating, Barnyardgrass” value (barnyardgrass [24]; [30]) was 0 and the “Plant response rating, Barnyardgrass” value (barnyardgrass [24]; 125 g ai/ha, scale 0 to 100) was 20. For the same compound, the “Plant response rating, Barnyardgrass” value (barnyardgrass [24]; 250 g ai/ha, scale 0 to 100) was 35.

For `CCCNC(=O)c1cc(COC)n(Cc2ccnc(C(F)(F)F)c2)n1` [Compound 168], the “Barnyardgrass plant response rating” value (barnyardgrass [1]; [25]) was 20, the “Barnyardgrass plant response rating” value (barnyardgrass [1]; [26]) was 100 and the “Crabgrass, Large plant response rating (0 to 100 scale)” value (crabgrass, large [2]; [31]) was 100. The “Crabgrass, Large plant response rating” value (crabgrass, large [2]; [26]) was 100, the “Foxtail, Giant plant response rating (0 to 100 scale)” value (foxtail, giant [3]; [31]) was 90 and the “Foxtail, Giant plant response rating” value (foxtail, giant [3]; [26]) was 100. The “Morningglory plant response rating (0 to 100 scale)” value (morningglory [4]; [31]) was 80, the “Morningglory plant response rating” value (morningglory [4]; [26]) was 100 and the “Pigweed plant response rating (0 to 100 scale)” value (pigweed [5]; [31]) was 100. For the same compound, the “Pigweed plant response rating” value (pigweed [5]; [26]) was 100, the “Velvetleaf plant response rating (0 to 100 scale)” value (velvetleaf [6]; [31]) was 20 and the “Velvetleaf plant response rating” value (velvetleaf [6]; [26]) was 100. The “Wheat plant response rating (0 to 100 scale)” value (wheat [7]; [31]) was 10, the “Wheat plant response rating” value (wheat [7]; [26]) was 70 and the “Corn plant response rating (0 to 100 scale)” value (corn [8]; [31]) was 0. For the same compound, the “Corn plant response rating” value (corn [8]; [26]) was 20, the “Barnyardgrass plant response rating” value (barnyardgrass [9]; [27]) was 90 and the “Barnyardgrass plant response rating” value (barnyardgrass [9]; [28]) was 50. For the same compound, the “Crabgrass, Large plant response rating” value (crabgrass, large [10]; [27]) was 90, the “Crabgrass, Large plant response rating” value (crabgrass, large [10]; [28]) was 60 and the “Foxtail, Giant plant response rating” value (foxtail, giant [11]; [27]) was 90. For the same compound, the “Foxtail, Giant plant response rating” value (foxtail, giant [11]; [28]) was 60, the “Morningglory plant response rating” value (morningglory [12]; [27]) was 100 and the “Morningglory plant response rating” value (morningglory [12]; [28]) was 70. For the same compound, the “Pigweed plant response rating” value (pigweed [13]; [27]) was 100, the “Pigweed plant response rating” value (pigweed [13]; [28]) was 80 and the “Velvetleaf plant response rating” value (velvetleaf [14]; [27]) was 70. For the same compound, the “Velvetleaf plant response rating” value (velvetleaf [14]; [28]) was 40, the “Wheat plant response rating” value (wheat [15]; [27]) was 40 and the “Wheat plant response rating” value (wheat [15]; [28]) was 0. The “Corn plant response rating” value (corn [16]; [27]) was 80, the “Corn plant response rating” value (corn [16]; [28]) was 20 and the “Plant response rating, Rice” value (rice [17]) was 20. The “Plant response rating, Sedge, Umbrella” value (sedge, umbrella [18]) was 90, the “Plant response rating, Ducksalad” value (ducksalad [19]) was 90 and the “Plant response rating, Barnyardgrass” value (barnyardgrass [20]) was 20. The “Plant response rating, Rice” value (rice [21]; [29]) was 0, the “Plant response rating, Rice” value (rice [21]; [30]) was 0 and the “Plant response rating, Rice” value (rice [21]; 125 g ai/ha, scale 0 to 100) was 0. The “Plant response rating, Sedge, Umbrella” value (sedge, umbrella [22]; [29]) was 0, the “Plant response rating, Sedge, Umbrella” value (sedge, umbrella [22]; [30]) was 50 and the “Plant response rating, Sedge, Umbrella” value (sedge, umbrella [22]; 125 g ai/ha, scale 0 to 100) was 80. For the same compound, the “Plant response rating, Ducksalad” value (ducksalad [23]; [29]) was 0, the “Plant response rating, Ducksalad” value (ducksalad [23]; [30]) was 50 and the “Plant response rating, Ducksalad” value (ducksalad [23]; 125 g ai/ha, scale 0 to 100) was 70. For the same compound, the “Plant response rating, Barnyardgrass” value (barnyardgrass [24]; [29]) was 0, the “Plant response rating, Barnyardgrass” value (barnyardgrass [24]; [30]) was 0 and the “Plant response rating, Barnyardgrass” value (barnyardgrass [24]; 125 g ai/ha, scale 0 to 100) was 0.
